Test [1] has as its system oligodendrocyte progenitor cells (OPCs), OPC-5. The test can be described thus: Differentiation of OPCs to MBP+ oligodendrocytes (in vitro phenotypic screening, high-content imaging). The test is classed as cell-based, mouse. As to conditions: for activation at 0.03 µM / activation at 0.1 µM / activation at 0.3 µM / activation at 1 µM: Mus musculus, Oligodendrocyte progenitor cell, 72 h treatment; for activation at 0.03 µM: read-out: % enhancement of MBP+ oligodendrocyte generation at 0.03 μM concentration; for activation at 0.1 µM: read-out: % enhancement of MBP+ oligodendrocyte generation at 0.1 μM concentration; for activation at 0.3 µM: read-out: % enhancement of MBP+ oligodendrocyte generation at 0.3 μM concentration; for activation at 1 µM: read-out: % enhancement of MBP+ oligodendrocyte generation at 1 μM concentration; for enhancement of oligodendrocyte formation (in words): OPC-5, FIGS. 2a-2c. On the procedure:
To rigorously assess effects of small molecule and genetic treatments on OPCs, all treatments were assayed in two batches of epiblast stem cell-derived OPCs, and key results were confirmed using mouse primary OPCs. OPCs were generated from two separate EpiSC lines, EpiSC5 (giving rise to OPC-5 OPCs) and 12901 (giving rise to OPC-1 OPCs). EpiSC-derived OPCs were obtained using in vitro differentiation protocols and culture conditions described previously. To ensure uniformity throughout all in vitro screening experiments, EpiSC-derived OPCs were sorted to purity by fluorescence activated cell sorting at passage five with conjugated CD 140a-APC (eBioscience, 17-1401; 1:80) and NG2-AF488 (Millipore, AB5320A4; 1:100) antibodies. Sorted batches of OPCs were expanded and frozen down in aliquots. OPCs were thawed into growth conditions for one passage before use in further assays. Cultures were regularly tested and shown to be mycoplasma free.
EpiSC-derived OPCs were grown and expanded in poly-ornithine (PO) and laminin-coated flasks with growth medium (DMEM/F12 supplemented with N2-MAX (R&D Systems), B-27 (ThermoFisher), GlutaMax (Gibco), FGF2 ([…], R&D systems, 233-FB-025) and PDGF-AA ([…], R&D systems, 233-AA-050) before harvesting for plating. The cells were seeded onto poly-D-lysine 96-well CellCarrier or CellCarrierUltra plates (PerkinElmer) coated with laminin (Sigma, L2020; 15 μg/ml) using multi-channel pipet. For the experiment, 800,000 cells/mL stock in differentiation medium (DMEM/F12 supplemented with N2-MAX and B-27) was prepared and stored on ice for 2 h. Then, 40,000 cells were seeded per well in differentiation medium and allowed to attach for 30 min before addition of drug. For dose-response testing of all molecules except sterols, a 1000× compound stock in dimethyl sulphoxide (DMSO) was added to assay plates with 0.1 μL solid pin multi-blot replicators (V & P Scientific; VP 409), resulting in a final primary screening concentration of 1×. Cells were incubated under standard conditions (37° C., 5% CO2) for 3 days and fixed with 4% paraformaldehyde (PFA) in phosphate buffered saline (PBS) for 20 min. Fixed plates were washed with PBS (200 μL per well) twice, permeabilized with 0.1% Triton X-100 and blocked with 10% donkey serum (v/v) in PBS for 40 min. Then, cells were labelled with MBP antibodies (Abcam, ab7349; 1:200) for 16 h at 4° C. followed by detection with Alexa Fluor conjugated secondary antibodies (1:500) for 45 min. Nuclei were visualized by DAPI staining (Sigma; 1 μg/ml). During washing steps, PBS was added using a multi-channel pipet and aspiration was performed using Biotek EL406 washer dispenser (Biotek) equipped with a 96-well aspiration manifold.
Plates were imaged on the Operetta High Content Imaging and Analysis system (PerkinElmer) and a set of 6 fields captured from each well resulting in an average of 1200 cells being scored per well. Analysis (PerkinElmer Harmony and Columbus software) began by identifying intact nuclei stained by DAPI; that is, those traced nuclei that were larger than 300 μm2 in surface area. Each traced nucleus region was then expanded by 50% and cross-referenced with the […] (MBP) stain to identify oligodendrocyte nuclei, and from this the percentage of oligodendrocytes was calculated.

Test [2] has as its system cholesterol biosynthesis in OPCs (CYP51, TM7SF2, EBP). The test can be described thus: GC/MS-based sterol profiling in OPCs. It is filed as cell-based, mouse. To be noted: GC-MS. Here is the method:
EpiSC-derived OPCs were plated at 0.5 million cells per ml in PDL- and laminin-coated six or twelve well plate with differentiation media. After 24 hours, cells were dissociated with Accutase, rinsed with saline, and cell pellets were frozen. For sterol analyses, cells were lysed in methanol (Sigma-Aldrich) with agitation for 30 minutes and cell debris removed by centrifugation at 10,000 rpm for 15 min. Cholesterol-d7 standard (25,26,26,26,27,27,27-^2H7-cholesterol, Cambridge Isotope Laboratories) was added before drying under nitrogen stream and derivatization with 55 μl of bis(trimethylsilyl)trifluoroacetamide/trimethylchlorosilane to form trimethylsilyl derivatives. Following derivatization at 60° C. for 20 minutes, 1 μl was analyzed by gas chromatography/mass spectrometry using an Agilent 5973 Network Mass Selective Detector equipped with a 6890 gas chromatograph system and a HP-5MS capillary column ([…]). Samples were injected in splitless mode and analyzed using electron impact ionization. Ion fragment peaks were integrated to calculate sterol abundance, and quantitation was relative to cholesterol-d7. The following m/z ion fragments were used to quantitate each metabolite: cholesterol-d7 (465), FF-Mas (482), cholesterol (368), zymostenol (458), zymosterol (456), desmosterol (456, 343), 7-dehydrocholesterol (456, 325), lanosterol (393), lathosterol (458), 14-dehydrozymostenol (456). Calibration curves were generated by injecting varying concentrations of sterol standards and maintaining a fixed amount of cholesterol-D7. The human glioma cell line GBM528 was a gift of Jeremy Rich (Cleveland Clinic). Human cortical spheroids were generated as described previously.

Consider `OCC1CCCCN1Cc1ccc(Cl)c(Cl)c1` (stereo not drawn) [Compound 11], for which, in test [1], the activation at 0.03 µM lay within 20 to 30%, the activation at 0.1 µM lay within 30 to 40%, the activation at 0.3 µM was greater than 40% and the activation at 1 µM is greater than 40%. Besides, the “enhancement of oligodendrocyte formation (in words)” value in test [1] was “strongly promoted oligodendrocyte formation”.
Regarding `Clc1ccc(CN2CCCCCC2)cc1Cl` [Compound 15], in test [1], the activation at 0.03 µM was no more than 20%, the activation at 0.1 µM fell in the range of 20 to 30%, the activation at 0.3 µM lay within 30 to 40% and the activation at 1 µM fell in the range of 30 to 40%.
`c1ccc(-c2ccc(CN3CCCCCC3)cc2)cc1` [Compound 3]: in test [1], the activation at 0.03 µM lay within 20 to 30%, the activation at 0.1 µM was in the range of 20 to 30%, the activation at 0.3 µM is 30 to 40% and the activation at 1 µM was greater than 40%.
Consider `NC(=O)C1CCN(Cc2ccc(-c3ccccc3)cc2)CC1` [Compound 13], for which, in test [1], the activation at 0.03 µM was in the range of 20 to 30%, the activation at 0.1 µM is 20 to 30%, the activation at 0.3 µM lay in the range of 30 to 40% and the activation at 1 µM was greater than 40%.
On to `OC1CCN(Cc2ccc(-c3ccccc3)cc2)CC1` [Compound 16], for which, in test [1], the activation at 0.03 µM was in the range of 20 to 30%, the activation at 0.1 µM was 20 to 30%, the activation at 0.3 µM was in the range of 20 to 30% and the activation at 1 µM was in the range of 30 to 40%.
As for `OCC1CCCN(Cc2ccc(-c3ccccc3)cc2)C1` (stereo not drawn) [Compound 9], in test [1], the activation at 0.03 µM fell in the range of 20 to 30%, the activation at 0.1 µM lay within 20 to 30%, the activation at 0.3 µM fell in the range of 30 to 40% and the activation at 1 µM was in the range of 30 to 40%.
On to `CC(C)C(=O)NC(Cc1ccc(OCc2ccccc2)cc1)C(=O)NCCCN(C)c1ccccc1` (stereo not drawn) [Compound 19], for which, in test [2] (10 μM screening dose), the “cholesterol biosynthesis in OPCs” value was “inhibition of cholesterol biosynthesis”. For the same molecule, the “lanosterol accumulation in OPCs (indicative of CYP51 inhibition)” value in test [2] (10 μM) is given as “accumulation of the 8,9-unsaturated sterol lanosterol”. In addition, in test [1], the activation at 0.03 µM fell in the range of 20 to 30%, the activation at 0.1 µM fell in the range of 20 to 30%, the activation at 0.3 µM lay in the range of 30 to 40% and the activation at 1 µM was 30 to 40%. Besides, in test [1] (wide concentration range), the “EC50 for enhancing oligodendrocyte formation” value was “mid-nanomolar range”.
Turning to `OC1CCCN(Cc2ccc(-c3ccccc3)cc2)C1` (stereo not drawn) [Compound 8], in test [1], the activation at 0.03 µM fell in the range of 20 to 30%, the activation at 0.1 µM lay in the range of 20 to 30%, the activation at 0.3 µM was 30 to 40% and the activation at 1 µM fell in the range of 30 to 40%.
For `CCCCOc1ccc(CN2CCCCC2CC)cc1` (stereo not drawn) [Compound 4], in test [1], the activation at 0.03 µM was no more than 20%, the activation at 0.1 µM is 20 to 30%, the activation at 0.3 µM is no more than 20% and the activation at 1 µM fell in the range of 20 to 30%.
`c1ccc(-c2ccc(CNCCc3ccc(CN4CCCCC4)cc3)cc2)cc1` [Compound 18]: in test [1], the activation at 0.03 µM was in the range of 20 to 30%, the activation at 0.1 µM lay within 20 to 30%, the activation at 0.3 µM was in the range of 20 to 30% and the activation at 1 µM fell in the range of 30 to 40%.
In the case of `CCN1CCN(Cc2ccc(-c3ccccc3)cc2)CC1` [Compound 2], in test [1], the activation at 0.03 µM lay within 20 to 30%, the activation at 0.1 µM lay in the range of 30 to 40%, the activation at 0.3 µM was greater than 40% and the activation at 1 µM was greater than 40%.
As for `CN1CCN(Cc2ccc(-c3ccccc3)cc2)CC1` [Compound 6], in test [1], the activation at 0.03 µM was no more than 20%, the activation at 0.1 µM fell in the range of 20 to 30%, the activation at 0.3 µM lay within 30 to 40% and the activation at 1 µM fell in the range of 30 to 40%.
As for `c1ccc(-c2ccc(CN3CCSCC3)cc2)cc1` [Compound 7], in test [1], the activation at 0.03 µM is no more than 20%, the activation at 0.1 µM fell in the range of 30 to 40%, the activation at 0.3 µM lay in the range of 20 to 30% and the activation at 1 µM lay in the range of 30 to 40%.
With `CN(C(=O)c1ccc(-c2ccccc2)cc1)[C@@H]1Cc2ccc(CN3CCCCC3CO)cc2C1` (stereo partly drawn) [Compound 10], the “14-dehydrozymostenol accumulation in OPCs (indicative of TM7SF2 inhibition)” value in test [2] (1 μM) is listed as “accumulated 14-dehydrozymostenol”. In test [1], the activation at 0.03 µM lay within 20 to 30%, the activation at 0.1 µM lay within 30 to 40%, the activation at 0.3 µM is greater than 40% and the activation at 1 µM was greater than 40%. The “enhancement of oligodendrocyte formation (in words)” value in test [1] is given as “strongly promoted oligodendrocyte formation”.
In the case of `OCCN1CCN(Cc2ccc(-c3ccccc3)cc2)CC1` [Compound 12], in test [1], the activation at 0.03 µM was no more than 20%, the activation at 0.1 µM lay in the range of 20 to 30%, the activation at 0.3 µM fell in the range of 30 to 40% and the activation at 1 µM is greater than 40%.
Taken in the same sequence, the figures for `CSc1ccc(CN2CCCCC2CO)cc1` (stereo not drawn) [Compound 14] were 20 to 30%, 30 to 40%, 30 to 40% and 30 to 40%.
With `Clc1ccc(CN2CCCCCCC2)cc1Cl` [Compound 17], in test [1], the activation at 0.03 µM was no more than 20%, the activation at 0.1 µM is no more than 20%, the activation at 0.3 µM was no more than 20% and the activation at 1 µM is no more than 20%.
Consider `Clc1ccc(CN2CCN(Cc3ccccc3)CC2)cc1Cl` [Compound 5], for which, in test [1], the activation at 0.03 µM is no more than 20%, the activation at 0.1 µM lay in the range of 20 to 30%, the activation at 0.3 µM is 30 to 40% and the activation at 1 µM fell in the range of 30 to 40%.

The values are drawn from patent US12048678B2, “Compounds for treating myelin related disorders” (Case Western Reserve University, priority 2018, dated 2024).
